Target: T1, ggTas2r2 (Gallus gallus, UniProt A0A1D5PXM6)
T1 construct: gene LOC101747503; transient expression in HEK 293T stably expressing Galpha16gust44; printed residues Gly85, Trp88, Asn92, Tyr180, Leu184, Tyr243, Ser246, Gln250
T1 sequence (A0A1D5PXM6 1-311): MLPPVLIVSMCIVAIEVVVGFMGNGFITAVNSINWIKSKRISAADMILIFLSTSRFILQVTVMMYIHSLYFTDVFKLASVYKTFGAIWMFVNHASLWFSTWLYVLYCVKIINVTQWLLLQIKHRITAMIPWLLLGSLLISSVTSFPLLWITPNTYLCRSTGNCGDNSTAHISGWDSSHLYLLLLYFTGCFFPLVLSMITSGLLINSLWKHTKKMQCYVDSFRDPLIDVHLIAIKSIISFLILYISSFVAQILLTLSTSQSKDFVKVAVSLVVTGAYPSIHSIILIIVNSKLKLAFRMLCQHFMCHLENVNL
Experiment: calcium mobilization, Fluo4-AM, FLIPR, dose-response
Assay type: cell-based
Settings: agonist; HEK 293T with Galpha16gust44; 2.5 mM probenecid at loading

Row | Compound | calcium mobilization, Fluo4-AM, FLIPR, dose-response
1 | CCOc1ccc2nccc([C@@H](O)[C@@H]3C[C@@H]4CCN3C[C@@H]4CC)c2c1 [ethylhydrocupreine] | Epiquinidine and ethylhydrocupreine can still activate ggTas2r2 and ggTas2r7
2 | C=C[C@H]1CN2CC[C@H]1C[C@@H]2[C@H](O)c1ccnc2ccc(OC)cc12 [epiquinidine] | Epiquinidine and ethylhydrocupreine can still activate ggTas2r2 and ggTas2r7
